Values joined by “and” are separate entries in the source; they are usually repeats but may differ in a detail not shown here. Equal values may be shown once.
Columns and labels:
Type in all cases: physicochemical
[1] = Pour point and cloud point, cooling regime of ASTM D97; conditions: for Cloud point, °C: visual inspection during the same run; for low temperature fluidity: result in words
Procedure: Pour points and cloud points were determined using the same thermal cooling regime, as instructed by ASTM D97. The sample sizes were 5 to 15 mL during the measurements.
Cloud points were determined during the same run by visual inspection of the sample appearance at low temperature. The samples were removed from the freezer every 3°C for visual inspection and, if cloudy, meniscus movement with inversion. The pour point resembled the last measurement, at which the meniscus boundary was still moving within 5 seconds of horizontal inversion. All samples were tested in duplicate.
In engine oils and hydraulic fluids, low temperature fluidity is primarily determined by pour points [ASTM D97]. Generally, pour points below -30°C are considered sufficient. Some polymer additives, e.g. "Pour Point Depressants" (PPD), are able to improve low temperature fluidity. […] Therefore, initially pour points and cloud points [ASTM D2500 "Standard Test Method for Cloud Point of Petroleum Products and Liquid Fuels"] of α-ω dibasic esters were evaluated and shown in Table 4.

[2] = Thin film test, oxidative stability (time to insoluble residues and to solidification); conditions: 500 µm thick films at 120°C; for Vapor loss at solidification: at the duration of full film solidification
Description: (§1) The exact procedure, used here, has been described in detail by Stoncius, A. et al. in "Volatiles from Thin Film Degradation of Bio-based, Synthetic and Mineral Basestocks", published in Industrial Lubrication & Tribology, 2013, 65 (3) 209-215, 2013, Emerald Group Publishing Edition or by Brazinskiene, D. et al. in "Ester Basestock Vaporisation from Thin Oil Films", published in Lubrication Science, DOI: 10.1002/ls.1372, pp 1-17, 2017, Wiley Edition.
(§2) Briefly, an oil film of 500 µm thickness was coated on steel coupon and heated at given temperature for specific duration in a forced-draft oven. Afterwards, the volatile losses and insoluble residues were measured gravimetrically.
Therefore, thin films of commercial basestocks and α-ω dibasic esters were compared by exposing their thin films to 120°C as described by Stoncius, A. et al. in "Volatiles from Thin Film Degradation of Bio-based, Synthetic and Mineral Basestocks" published in Industrial Lubrication & Tribology, 2013, 65 (3), 209-215, Emerald Group Publishing Edition or by Brazinskiene, D. et al. in "Ester Basestock Vaporisation from Thin Oil Films" published in Lubrication Science, DOI: 10.1002/ls.1372, pp 1-17, 2017, Wiley Edition.
The thin-film method determines how resistant oil is against formation of insoluble residues during oxidation. Degradation durations until initial formation of solid residues and complete solidification directly relate to oxidative stability.

[3] = Thin film test, volatile losses (500 µm oil film on steel coupon, forced-draft oven, gravimetric); conditions: for Volatile emissions, 16 hrs / Volatile emissions, 36 hrs: 500 µm thick films at 120°C
Description: as §1, §2
As discussed in the prior-art review, volatility can be successfully evaluated in a thin film test as described by Stoncius, A. et al. in "Volatiles from Thin Film Degradation of Bio-based, Synthetic and Mineral Basestocks" published in Industrial Lubrication & Tribology, 2013, 65 (3) 209-215, Emerald Group Publishing Edition or by Brazinskiene, D. et al. in "Ester Basestock Vaporisation from Thin Oil Films" published in Lubrication Science, DOI: 10.1002/ls.1372, pp 1-17, 2017, Wiley Edition. This thin-film method is much better suited for hydraulic fluid applications than NOACK or other tests, which employ 250°C or similar temperatures, related to engine oil applications. Also, the above method accounts for longer term decomposition reactions due to exposure to metal surfaces and oxidation, which is prevalent in hydraulic applications. Therefore, using the thin-film method short-term vapor losses were measured after 16 hrs and decomposition trends were compared after 36 hrs of testing. Heating temperature of 120°C was selected to compare thin films of α,ω dibasic esters with commercial basestocks. Table 5. Volatile emissions, % w/w from 500 µm thick films of α-ω dibasic esters and commercial basestocks at 120°C

[4] = Kinematic viscosity with capillary Cannon-Fenske viscometers; Viscosity Index calculated per ASTM D2270; conditions: for Viscosity Index: calculated per ASTM D2270 from viscosities at 40°C and 100°C; for Viscosity, mm^2/s at 40°C: kinematic viscosity at 40°C; for Viscosity, mm^2/s at 100°C: kinematic viscosity at 100°C
Procedure: Kinematic viscosities at 40°C and 100°C were measured using capillary Cannon-Fenske viscometers per ASTM […]. Viscosity Index (the value, describing the rate of thinning with increasing temperature) was calculated per ASTM D2270.

[5] = Solubility of lubricant additives in the basestocks
Procedure: Several typical lubricant additives have been tested for solubility in α-ω dibasic esters of 2-ethyl hexanol 26U18 and 26S12 as well as commercial basestock 350N. The additives were mixed in at temperatures of 50°C or lower and held for longer than a week at room temperature. Table 7. Solubility of lubricant additives, dissolved in α-ω dibasic esters and commercial basestocks
The additives were selected to represent different chemical categories: soaps, heterocycles, phosphorous derivatives, polymers, etc. Most of these additives are designed to be dissolved in paraffinic mineral oils and synthetic lubricants with some heating. It is often thought that esters are better solvents than mineral oils or synthetic hydrocarbons like poly α-olefins. Therefore, the tested concentrations were much higher than additive proportions for hydraulic fluids, as recommended by the additive manufacturers.

Compound	Pour point, °C [1]	Cloud point, °C [1]	Full solidification observed [2]	Initial residues observed [2]	Vapor loss at solidification [2]	Volatile emissions, 16 hrs [3]	Volatile emissions, 36 hrs [3]	Viscosity Index [4]	Viscosity, mm^2/s at 40°C [4]	Viscosity, mm^2/s at 100°C [4]	volatility ([3]; result in words, thin films at 120°C)	Solubility of 1% w/w Vanlube 7723 ([5]; Alkyl dithiocarbamate, mixed in at 50°C or lower, held longer than a week at room temperature)	Solubility of 1% w/w Irgalube ML605A ([5]; Amine and phosphate derivatives, mixed in at 50°C or lower, held longer than a week at room temperature)	Solubility of 1% w/w Vanlube 7611 M ([5]; Phosphoro dithioate, mixed in at 50°C or lower, held longer than a week at room temperature)	Solubility of 5% w/w Viscoplex 10-310 ([5]; Poly alkyl methacrylate, mixed in at 50°C or lower, held longer than a week at room temperature)	Solubility of 2% w/w Vanlube RI- A ([5]; Soap and ester derivatives, mixed in at 50°C or lower, held longer than a week at room temperature)	Solubility of 1% w/w Cobratec TT-100 ([5]; Tolyl triazole, mixed in at 50°C or lower, held longer than a week at room temperature)	Initial solution appearance ([5]; all tested additives blended in, unchanged after 1 week at room temperature)	low temperature fluidity [1]
1,9-di(2-ethylhexyl) nonanedioate [26S9, reference compound]	-57 °C	-38 °C	553 h	367 h	92% w/w	2.65 % w/w	4.7 % w/w	111	10.5 mm^2/s	2.8 mm^2/s									
1,12-di(2-ethylhexyl) dodecanedioate [26S12, reference compound]	-48 °C	-30 °C	655 h	583 h	86% w/w	0.8 % w/w	1.75 % w/w	147	14.72 mm^2/s	3.72 mm^2/s	much lower volatility	soluble	soluble	soluble	soluble	soluble	soluble	bright and clear	
1,18-di(1-methylheptyl) octadec-9-enedioate [17U18]	-21 °C	-18 °C	463 h	343 h	63% w/w	0.87 % w/w	7 % w/w	205	21.2 mm^2/s	5.35 mm^2/s									much poorer low temperature fluidity
1,18-di(2-butyloctyl) octadec-9-enedioate [48U18]	-54 °C	-48 °C	320 h	248 h	47% w/w	1.7 % w/w	9.8 % w/w	163	36.09 mm^2/s	7.09 mm^2/s									
1,18-di(2-propylheptyl) octadec-9-enedioate [37U18]	-51 °C	-51 °C	324 h	248 h	54% w/w	3.5 % w/w	10.6 % w/w	174	28.7 mm^2/s and 28.74 mm^2/s	6.39 mm^2/s									
1,18-di(3,3,5-trimethylhexyl) octadec-9-enedioate [9U18]	-33 °C	-33 °C	367 h	344 h	71% w/w	5 % w/w	13.9 % w/w	202	28.8 mm^2/s	6.7 mm^2/s									
1,18-di(3-methylbutyl) octadec-9-enedioate [5U18]	-24 °C	-24 °C	225 h	152 h	66% w/w	12.6 % w/w	23.7 % w/w	196	12.93 mm^2/s	3.73 mm^2/s									
1,18-dimethyl octadec-9-enedioate [1U18]	> +15 °C	> +15 °C	344 h	248 h		9.4 % w/w	25.6 % w/w	204	8.68 mm^2/s	2.85 mm^2/s									much poorer low temperature fluidity
1-(3,7,11,15-tetra methyl-2-hexadecenyl) - 18-(2-ethylhexyl) octadec-9-enedioate [2026U18]	-66 °C	-63 °C	176 h	152 h	39% w/w	6.7 % w/w	13.4 % w/w	175	42.54 mm^2/s	8.3 mm^2/s									
CCCCCCC(C)OC(=O)CCCCCCCCCCCCCCCCC(=O)OC(C)CCCCCC (stereo not shown) [17S18, 1,18-di(1-methylheptyl) octadecanedioate, reference compound]	+9 °C	+9 °C						180	22.7 mm^2/s	5.31 mm^2/s									very problematic low temperature fluidity
CCCCC(CC)COC(=O)CCCCCCCCCCCCCCCCC(=O)OCC(CC)CCCC (stereo not shown) [26S18, 1,18-di(2-ethylhexyl) octadecanedioate, reference compound]	-9 °C	-9 °C						194	23.9 mm^2/s	5.71 mm^2/s									very problematic low temperature fluidity
CCCCCCC(CCCC)COC(=O)CCCCCCCC=CCCCCCCCC(=O)OCC(CC)CCCC (stereo not shown) [4826U18, 1-(2-butyloctyl)-18-(2-ethylhexyl)octadec-9-enedioate]	-51 °C	-51 °C	325 h	248 h	57% w/w	3.8 % w/w	10.1 % w/w	205	28.97 mm^2/s	6.78 mm^2/s									

— EP3483233A1, “LUBRICANT BASE OIL COMPOSITIONS OF MONO-UNSATURATED DIBASIC ACID ESTERS WITH BRANCHED ALCOHOLS” (ARKEMA FRANCE, priority 2017, dated 2019)
